From ChEMBL document CHEMBL4011618, “Discovery of Potent, Selective Stem Cell Factor Receptor/Platelet Derived Growth Factor Receptor Alpha (c-KIT/PDGFRα) Dual Inhibitor for the Treatment of Imatinib-Resistant Gastrointestinal Stromal Tumors (GISTs)” (J Med Chem, 2017)
Activity calls are given as the source filed them. No cut-off for these calls is given here.

Experiments:
[1] = Antiproliferative activity against CHO cells assessed as cell growth inhibition after 72 hrs by cell titer-glo assay; format: cell-based, Cricetulus griseus; conditions: chinese hamster
[2] = system: Mast/stem cell growth factor receptor Kit (Homo sapiens), P10721 [C674S]
Description: Inhibition of TEL-fused cKIT C674S mutant (unknown origin) expressed in mouse BAF3 cells assessed as cell growth inhibition after 72 hrs by cell titer-glo assay

BaF3 = conditions: Mus musculus
Description: Antitumor activity against mouse BAF3 cells harboring TEL-cKIT-T670I mutant allografted in nu/nu mouse assessed as tumor growth inhibition at 100 mg/kg, ip administered daily for 11 days relative to control

MEG-01 = experiment: Antiproliferative activity against human MEG01 cells assessed as cell growth inhibition after 72 hrs by cell titer-glo assay; format: functional; conditions: MEG-01, 72 h
[3] = system: Mast/stem cell growth factor receptor Kit (Homo sapiens), P10721 [V559D,V654A]
[4] = system: Mast/stem cell growth factor receptor Kit (Homo sapiens), P10721 [N822K]
Description: Inhibition of TEL-fused cKIT N822K mutant (unknown origin) expressed in mouse BAF3 cells assessed as cell growth inhibition after 72 hrs by cell titer-glo assay

KU812 cell line = experiment: Antiproliferative activity against human KU812 cells assessed as cell growth inhibition after 72 hrs by cell titer-glo assay; format: functional; conditions: KU812, 72 h
[5] = system: Mast/stem cell growth factor receptor Kit (Homo sapiens), P10721 [A829P]
Description: Inhibition of TEL-fused cKIT A829P mutant (unknown origin) expressed in mouse BAF3 cells assessed as cell growth inhibition after 72 hrs by cell titer-glo assay

GISTT1 [6] = experiment: Antiproliferative activity against human GISTT1 cells assessed as cell growth inhibition after 72 hrs by cell titer-glo assay; format: functional; conditions: GISTT1, 72 h
[7] = Antiproliferative activity against CHL cells assessed as cell growth inhibition after 72 hrs by cell titer-glo assay; format: cell-based, Cricetulus griseus; conditions: chinese hamster
GISTT1 [8] = experiment: Antitumor activity against human GISTT1 cells xenografted in nu/nu mouse assessed as tumor growth inhibition at 100 mg/kg, ip administered daily for 28 days relative to control; format: functional; conditions: 672 h, read-out: TGI
[9] = system: Platelet-derived growth factor receptor alpha (Homo sapiens), P16234 [T674I]
Platelet-derived growth factor receptor alpha (Homo sapiens), P16234 [T674I], sequence (P16234 whole entry T674I): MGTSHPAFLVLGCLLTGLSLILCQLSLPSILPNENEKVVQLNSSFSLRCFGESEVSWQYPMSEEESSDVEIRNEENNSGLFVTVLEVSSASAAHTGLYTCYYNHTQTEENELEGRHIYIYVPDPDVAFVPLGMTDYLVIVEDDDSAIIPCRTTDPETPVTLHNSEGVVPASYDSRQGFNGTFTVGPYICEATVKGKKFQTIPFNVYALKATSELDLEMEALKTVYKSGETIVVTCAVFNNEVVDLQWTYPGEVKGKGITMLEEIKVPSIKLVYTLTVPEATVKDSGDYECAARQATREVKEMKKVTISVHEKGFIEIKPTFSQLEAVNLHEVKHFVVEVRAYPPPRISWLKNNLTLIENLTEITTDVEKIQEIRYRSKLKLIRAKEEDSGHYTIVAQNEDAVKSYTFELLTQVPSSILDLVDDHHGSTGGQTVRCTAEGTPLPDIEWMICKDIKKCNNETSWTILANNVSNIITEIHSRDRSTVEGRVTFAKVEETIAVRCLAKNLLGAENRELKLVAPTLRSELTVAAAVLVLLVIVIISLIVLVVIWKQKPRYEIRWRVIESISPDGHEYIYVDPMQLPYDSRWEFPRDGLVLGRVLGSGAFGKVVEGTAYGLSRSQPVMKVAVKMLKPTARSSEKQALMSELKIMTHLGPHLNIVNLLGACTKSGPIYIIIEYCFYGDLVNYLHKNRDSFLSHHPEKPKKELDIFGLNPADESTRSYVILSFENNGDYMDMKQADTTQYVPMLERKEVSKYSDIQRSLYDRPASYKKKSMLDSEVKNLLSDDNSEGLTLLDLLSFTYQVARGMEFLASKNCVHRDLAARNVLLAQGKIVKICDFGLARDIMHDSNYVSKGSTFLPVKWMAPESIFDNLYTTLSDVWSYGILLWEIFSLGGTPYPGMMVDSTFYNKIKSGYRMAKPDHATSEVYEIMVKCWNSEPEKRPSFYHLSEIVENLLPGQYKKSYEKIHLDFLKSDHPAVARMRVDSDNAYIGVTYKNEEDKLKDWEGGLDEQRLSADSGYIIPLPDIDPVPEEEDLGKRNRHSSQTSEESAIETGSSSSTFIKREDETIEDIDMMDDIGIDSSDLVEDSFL
Description: Inhibition of TEL-fused PDGFRalpha T674I mutant (unknown origin) expressed in mouse BAF3 cells assessed as cell growth inhibition after 72 hrs by cell titer-glo assay

[10] = system: Mast/stem cell growth factor receptor Kit (Homo sapiens), P10721 [V654A]
Description: Inhibition of TEL-fused cKIT V654A mutant (unknown origin) expressed in mouse BAF3 cells assessed as cell growth inhibition after 72 hrs by cell titer-glo assay

[11] = Antiproliferative activity against human GIST48B cells assessed as cell growth inhibition after 72 hrs by cell titer-glo assay; format: functional
[12] = system: Mast/stem cell growth factor receptor Kit (Homo sapiens), P10721 [L576P]
Description: Inhibition of TEL-fused cKIT L576P mutant (unknown origin) expressed in mouse BAF3 cells assessed as cell growth inhibition after 72 hrs by cell titer-glo assay

GIST882 = experiment: Antiproliferative activity against human GIST882 cells assessed as cell growth inhibition after 72 hrs by cell titer-glo assay; format: functional; conditions: GIST882, 72 h
[13] = Antiproliferative activity against mouse BAF3 cells assessed as cell growth inhibition after 72 hrs by cell titer-glo assay; format: cell-based
[14] = target: Fibroblast growth factor receptor 1 (Homo sapiens, UniProt P11362); experiment: Inhibition of FGFR1 (unknown origin) using FAM-labeled peptide as substrate preincubated for 10 mins followed by substrate addition in presence of ATP by mobility shift assay
Fibroblast growth factor receptor 1, sequence (P11362 whole entry): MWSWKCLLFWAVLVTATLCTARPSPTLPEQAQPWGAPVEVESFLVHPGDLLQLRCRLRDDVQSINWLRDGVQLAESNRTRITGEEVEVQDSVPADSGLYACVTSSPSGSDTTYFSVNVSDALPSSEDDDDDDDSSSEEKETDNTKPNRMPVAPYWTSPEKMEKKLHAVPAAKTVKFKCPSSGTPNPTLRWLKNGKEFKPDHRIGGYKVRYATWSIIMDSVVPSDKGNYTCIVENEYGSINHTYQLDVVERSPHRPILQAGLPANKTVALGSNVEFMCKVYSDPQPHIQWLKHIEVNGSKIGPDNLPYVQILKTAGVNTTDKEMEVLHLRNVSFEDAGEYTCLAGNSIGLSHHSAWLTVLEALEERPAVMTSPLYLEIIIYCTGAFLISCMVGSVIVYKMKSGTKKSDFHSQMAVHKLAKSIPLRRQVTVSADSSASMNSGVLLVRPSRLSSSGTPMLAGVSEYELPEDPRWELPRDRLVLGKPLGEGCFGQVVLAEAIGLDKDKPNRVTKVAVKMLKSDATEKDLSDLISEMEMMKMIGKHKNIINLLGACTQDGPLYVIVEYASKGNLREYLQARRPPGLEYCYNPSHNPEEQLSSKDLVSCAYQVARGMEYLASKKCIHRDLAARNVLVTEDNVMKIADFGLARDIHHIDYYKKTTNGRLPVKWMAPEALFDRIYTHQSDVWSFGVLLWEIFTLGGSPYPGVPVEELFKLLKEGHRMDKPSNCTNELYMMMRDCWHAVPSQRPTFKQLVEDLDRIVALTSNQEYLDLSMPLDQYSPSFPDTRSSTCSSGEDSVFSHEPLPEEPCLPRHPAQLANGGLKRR

[15] = target: Vascular endothelial growth factor receptor 2 (Homo sapiens, UniProt P35968)
Vascular endothelial growth factor receptor 2, sequence (P35968 whole entry): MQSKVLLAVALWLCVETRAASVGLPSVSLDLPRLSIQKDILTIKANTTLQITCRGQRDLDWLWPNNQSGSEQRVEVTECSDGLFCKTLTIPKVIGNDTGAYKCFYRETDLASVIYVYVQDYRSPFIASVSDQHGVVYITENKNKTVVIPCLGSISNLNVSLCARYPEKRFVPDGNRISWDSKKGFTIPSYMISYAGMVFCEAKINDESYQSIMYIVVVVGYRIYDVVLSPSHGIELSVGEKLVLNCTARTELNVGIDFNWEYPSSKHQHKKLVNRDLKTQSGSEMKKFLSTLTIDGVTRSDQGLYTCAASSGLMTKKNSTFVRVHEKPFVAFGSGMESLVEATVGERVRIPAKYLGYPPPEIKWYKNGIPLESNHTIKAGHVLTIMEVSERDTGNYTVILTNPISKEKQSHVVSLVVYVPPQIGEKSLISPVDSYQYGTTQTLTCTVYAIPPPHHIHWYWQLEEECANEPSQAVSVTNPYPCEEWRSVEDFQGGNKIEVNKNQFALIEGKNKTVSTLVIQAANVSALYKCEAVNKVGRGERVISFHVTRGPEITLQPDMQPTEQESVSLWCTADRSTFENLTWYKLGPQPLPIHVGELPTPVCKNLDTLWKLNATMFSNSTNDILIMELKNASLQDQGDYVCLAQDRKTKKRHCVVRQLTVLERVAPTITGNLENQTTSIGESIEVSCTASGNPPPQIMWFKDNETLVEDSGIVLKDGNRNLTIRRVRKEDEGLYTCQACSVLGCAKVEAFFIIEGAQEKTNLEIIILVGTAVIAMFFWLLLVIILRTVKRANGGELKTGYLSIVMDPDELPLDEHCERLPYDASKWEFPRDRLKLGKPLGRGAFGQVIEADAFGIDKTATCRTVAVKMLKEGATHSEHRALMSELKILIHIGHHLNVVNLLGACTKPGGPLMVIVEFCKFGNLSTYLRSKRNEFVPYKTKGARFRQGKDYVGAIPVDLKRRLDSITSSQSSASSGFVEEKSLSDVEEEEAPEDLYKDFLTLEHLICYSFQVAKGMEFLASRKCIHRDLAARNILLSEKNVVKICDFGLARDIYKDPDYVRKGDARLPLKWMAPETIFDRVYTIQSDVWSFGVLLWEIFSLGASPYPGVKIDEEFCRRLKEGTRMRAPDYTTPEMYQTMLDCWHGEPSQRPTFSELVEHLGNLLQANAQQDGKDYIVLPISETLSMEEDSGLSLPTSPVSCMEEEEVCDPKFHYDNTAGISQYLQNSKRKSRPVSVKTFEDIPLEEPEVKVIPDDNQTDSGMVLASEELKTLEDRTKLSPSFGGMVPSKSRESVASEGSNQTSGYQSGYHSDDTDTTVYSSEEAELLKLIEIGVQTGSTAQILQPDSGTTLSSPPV
Description: Inhibition of VEGFR2 (unknown origin) using FAM-labeled peptide as substrate preincubated for 10 mins followed by substrate addition in presence of ATP by mobility shift assay

[16] = target: T1, Platelet-derived growth factor receptor alpha (Homo sapiens, UniProt P16234); experiment: Inhibition of PDGFRalpha (unknown origin) using FAM-labeled peptide as substrate preincubated for 10 mins followed by substrate addition in presence of ATP by mobility shift assay
[17] = target: T2, Mast/stem cell growth factor receptor Kit (Homo sapiens, UniProt P10721)
Description: Inhibition of TEL-fused cKIT (unknown origin) expressed in mouse BAF3 cells assessed as cell growth inhibition after 72 hrs by cell titer-glo assay

[18] = system: Mast/stem cell growth factor receptor Kit (Homo sapiens), P10721 [T670I]
Mast/stem cell growth factor receptor Kit (Homo sapiens), P10721 [T670I], sequence (P10721 whole entry T670I): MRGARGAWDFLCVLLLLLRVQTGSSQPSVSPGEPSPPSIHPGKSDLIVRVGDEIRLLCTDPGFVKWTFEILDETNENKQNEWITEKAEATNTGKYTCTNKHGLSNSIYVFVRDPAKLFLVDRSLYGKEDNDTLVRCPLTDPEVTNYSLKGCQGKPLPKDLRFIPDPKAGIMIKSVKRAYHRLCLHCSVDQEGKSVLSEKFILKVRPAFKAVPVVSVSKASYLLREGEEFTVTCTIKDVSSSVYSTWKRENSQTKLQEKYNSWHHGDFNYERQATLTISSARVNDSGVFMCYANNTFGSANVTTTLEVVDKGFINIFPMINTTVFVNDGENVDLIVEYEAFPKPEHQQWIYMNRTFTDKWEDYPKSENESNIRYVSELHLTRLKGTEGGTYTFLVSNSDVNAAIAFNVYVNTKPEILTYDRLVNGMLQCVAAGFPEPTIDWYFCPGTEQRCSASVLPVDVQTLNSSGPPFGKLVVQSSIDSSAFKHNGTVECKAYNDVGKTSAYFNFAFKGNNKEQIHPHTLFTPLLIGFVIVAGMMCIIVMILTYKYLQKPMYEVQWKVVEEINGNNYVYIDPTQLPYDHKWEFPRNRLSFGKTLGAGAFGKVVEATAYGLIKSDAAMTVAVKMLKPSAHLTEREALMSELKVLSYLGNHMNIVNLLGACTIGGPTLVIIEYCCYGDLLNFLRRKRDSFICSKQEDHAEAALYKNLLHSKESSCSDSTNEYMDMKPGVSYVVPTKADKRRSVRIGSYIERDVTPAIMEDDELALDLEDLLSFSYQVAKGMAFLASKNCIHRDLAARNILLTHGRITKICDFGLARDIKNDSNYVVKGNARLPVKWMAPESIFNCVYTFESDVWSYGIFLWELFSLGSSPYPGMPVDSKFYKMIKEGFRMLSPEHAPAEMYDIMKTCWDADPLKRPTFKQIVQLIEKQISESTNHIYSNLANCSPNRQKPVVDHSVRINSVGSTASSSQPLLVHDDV
Description: Inhibition of TEL-fused cKIT T670I mutant (unknown origin) expressed in mouse BAF3 cells assessed as cell growth inhibition after 72 hrs by cell titer-glo assay

[19] = target: T1, Platelet-derived growth factor receptor alpha
Description: Inhibition of TEL-fused PDGFRalpha (unknown origin) expressed in mouse BAF3 cells assessed as cell growth inhibition after 72 hrs by cell titer-glo assay

[20] = target: T2, Mast/stem cell growth factor receptor Kit; remark: listed apart in the source
Description: Inhibition of cKIT (unknown origin) using FAM-labeled peptide as substrate preincubated for 10 mins followed by substrate addition in presence of ATP by mobility shift assay

[21] = target: Vascular endothelial growth factor receptor 1 (Homo sapiens, UniProt P17948); experiment: Inhibition of VEGFR1 (unknown origin) using FAM-labeled peptide as substrate preincubated for 10 mins followed by substrate addition in presence of ATP by mobility shift assay
[22] = target: Platelet-derived growth factor receptor beta (Homo sapiens, UniProt P09619); experiment: Inhibition of PDGFRbeta (unknown origin) using FAM-labeled peptide as substrate preincubated for 10 mins followed by substrate addition in presence of ATP by mobility shift assay
[23] = target: Receptor-type tyrosine-protein kinase FLT3 (Homo sapiens, UniProt P36888); experiment: Inhibition of FLT3 (unknown origin) using FAM-labeled peptide as substrate preincubated for 10 mins followed by substrate addition in presence of ATP by mobility shift assay
[24] = target: Vascular endothelial growth factor receptor 3 (Homo sapiens, UniProt P35916); experiment: Inhibition of VEGFR3 (unknown origin) using FAM-labeled peptide as substrate preincubated for 10 mins followed by substrate addition in presence of ATP by mobility shift assay

Structure (SMILES) | GI50 [9] | IC50 [14] | IC50 [15] | IC50 [16] | GI50 [17] | GI50 [18] | GI50 [19] | other results
Cc1n[nH]c2nccc(-c3ccc(NC(=O)Nc4cccc(C(F)(F)F)c4)cc3)c12 |  | > 50000 nM | 1920 nM | 106 nM |  |  |  | 
Cc1ccc(F)c(NC(=O)Nc2ccc(-c3ccnc4[nH]nc(C)c34)cc2)c1 |  | > 50000 nM | 4290 nM | 87 nM |  |  |  | 
Cc1ccc(F)c(NC(=O)Nc2ccc(C3CC(O)=Nc4[nH]nc(C)c43)cc2)c1 (stereo not drawn) | > 10000 nM | 33800 nM | > 50000 nM | > 50000 nM | > 10000 nM | > 10000 nM | 4250 nM | 
Cc1ccc(F)c(NC(=O)Nc2ccc(-c3cc(O)nc4[nH]nc(C)c34)cc2)c1 | > 10000 nM | 4640 nM | 1860 nM | 1180 nM | > 10000 nM | > 10000 nM | 204 nM | 
Cc1cccc(NC(=O)Nc2ccc(C3CC(O)=Nc4[nH]nc(C)c43)cc2)c1 (stereo not drawn) |  | 18300 nM | > 50000 nM | > 50000 nM |  |  |  | 
Cc1cccc(NC(=O)Nc2ccc(-c3ccnc4[nH]nc(CO)c34)cc2)c1 | 5000 nM |  | 4920 nM | 87 nM | 1070 nM | 1840 nM | 10.4 nM | IC50 [20]: 2.4 nM
Cc1n[nH]c2nccc(-c3ccc(NC(=O)Nc4cccc(Br)c4)cc3)c12 |  | > 50000 nM | 3150 nM | 137 nM |  |  |  | 

Continued, in another order:

GI50 [9] | IC50 [14] | IC50 [15] | IC50 [16] | GI50 [17] | GI50 [18] | GI50 [19] | Structure (SMILES) | other results
> 10000 nM |  |  |  |  |  |  | Cc1ccc(NC(=O)c2ccc(CN3CCN(C)CC3)cc2)cc1Nc1nccc(-c2cccnc2)n1 [IMATINIB] | GI50 at 72 h [1]: > 10000 nM; GI50 [2]: 24.9 nM; TGI (BaF3): inactive; GI50 (MEG-01): 45 nM; GI50 [3]: 803 nM; GI50 [4]: 1470 nM; GI50 (KU812 cell line): 110 nM; GI50 [5]: 148 nM; GI50 (GISTT1 [6]): 3 nM; GI50 at 72 h [7]: > 10000 nM; inhibition in vivo at 100 mg/kg (GISTT1 [8]): 87.3%; GI50 [10]: 803 nM; GI50 [11]: 6990 nM; GI50 [12]: 45.1 nM; GI50 (GIST882): 20 nM; GI50 at 72 h [13]: 4690 nM
 | 2260 nM | 1220 nM | 560 nM |  |  |  | Cc1cccc(NC(=O)Nc2ccc(-c3cc(O)nc4[nH]nc(C)c34)cc2)c1 | 
 | 42900 nM | 8010 nM | 1570 nM |  |  |  | Cc1n[nH]c2nccc(-c3ccc(NC(=S)Nc4cccc(C(F)(F)F)c4)cc3)c12 | 
1170 nM | > 50000 nM | 1230 nM | 40 nM | 248 nM | 318 nM | 10.4 nM | Cc1cccc(NC(=O)Nc2ccc(-c3ccnc4[nH]nc(C)c34)cc2)c1 | IC50 [20]: 2.1 nM; IC50 [21]: 3490 nM; IC50 [22]: 197 nM; IC50 [23]: 1880 nM; IC50 [24]: 376 nM
1510 nM |  | 1840 nM | 22 nM | 83.3 nM | 217 nM | 10.4 nM | Cc1n[nH]c2nccc(-c3ccc(NC(=O)Nc4cnc5ccccc5c4)cc3)c12 | IC50 [20]: 1.9 nM
 | 20000 nM | 6240 nM | 1080 nM |  |  |  | Cc1n[nH]c2nccc(-c3ccc(NC(=S)Nc4cccc(Br)c4)cc3)c12 | 
